“Also recorded” adds a separate entry of the source. Bridges are numbered along the chain shown (N, C = ends). Where no end group is shown, it is not given here.
Columns and labels:
hNav1.7 = test: TEVC, Nav1.7 in Xenopus oocytes; format: cell-based, human
Text: (§1) For the expression of Kv channels (rKv1.1, rKv1.2, rKv1.3, rKv1.4, rK1.5, rKv1.6, hKv2.1, hKv3.1, rKv4.2, hKv7.1, hKv7.2/7.3, hKv7.4, KQT1 (from the roundworm Caenorhabditis elegans), hKv10.1 (hEAG1), hKv11.1 (hERG1), and Shaker, from Drosophila melanogaster), Nav channels (rNav1.1, rNav1.2, rNav1.3, rNav1.4, hNav1.5, mNav1.6, hNav1.7, hNav1.8, and BgNav (from the cockroach Blattella germanica), as well as the hβ1 and rβ1 subunits, and Cav channels (rCav3.1, hCav3.2, and rCav3.3) in Xenopus oocytes, the linearized plasmids were transcribed using the T7 or SP6 mMESSAGEmMACHINE transcription kit (Ambion, Austin, TX, USA). Mature female animals were purchased from Nasco (Fort Atkinson, WI, USA) and were housed in the Aquatic Facility (KU Leuven) in compliance with the regulations of the European Union (EU) concerning the welfare of laboratory animals as declared in Directive 2010/63/EU. The use of X. laevis oocytes was approved by the Animal Ethics Committee of the KU Leuven, with the license number P186/2019.
(§2) Stage V–VI oocytes were collected from anesthetized female X. laevis frog as previously described, with the frogs anesthetized by placement in a 0.1% tricaine solution (amino benzoic acid ethyl ester; Merck, Kenilworth, NJ, USA). Oocyte microinjection was performed using a microinjector (Drummond Scientifc®, Broomall, PA, USA), with a programmed cRNA injection volume of 4–50 nL, depending on channel subtype. The oocytes were incubated in ND96 solution (96 mM NaCl; 2 mM KCl; 1.8 mM CaCl2; 2 mM MgCl2, and 5 mM HEPES, pH 7.4), supplemented with 50 mg/L of gentamicin sulfate.
(§3) Electrophysiological measurements were performed at room temperature (18–22 °C) using the two-electrode voltage-clamp (TEVC) technique. Data were obtained using a GeneClamp 500 amplifier (Axon Instruments®, Burlingame, CA, USA) and Clampex9 software (Axon Instruments®, USA) was responsible for data acquisition and storage. Glass micropipettes were produced using glass capillaries (borosilicate WPI 1B120-6) and drawn in a WPI (World Precision Instruments®, Sarasota, FL, USA) manual stretcher. The bath and perfusion solutions were either the previously described ND96 (Nav and Kv channels) or calcium-free ND96 supplemented with 10 mM BaCl2 (Cav channels).
(§4) Whole-cell currents of oocytes were recorded 1 to 3 days after RNA injection. The current and voltage electrodes were filled with 3 M KCl, and their resistance was adjusted from 1.0 to 2.5 MΩ. Currents were sampled at 20 kHz (Nav channels) and 10 kHz (Kv and Cav channels) and filtered using a four-pole Bessel low-pass Bessel filter at 1 kHz for sodium and […] for potassium and calcium, except for the hERG ion channel in which the currents were filtered at 1 kHz. Leak subtraction was performed using a P/4 protocol. Kv1.x currents were evoked by 500 ms depolarizations to 0 mV, followed by a 500 ms pulse to −50 mV from a holding potential of −90 mV. Kv2.1, Kv3.1, Kv4.2, Kv7.x, and KQT1 currents were elicited by 700 ms pulses to +20 mV from a holding potential of −90 mV. Current traces of the hERG1 channel were elicited by applying a +40 mV prepulse for 2 s, followed by a step of −120 mV for 2 s. Current traces of hEAG1 were elicited by a 2 s depolarization to 0 mV from a holding potential of −90 mV. Sodium current traces were evoked by a 100 ms depolarization to 0 mV. For Cav channels, current traces were elicited by 700 ms depolarizations to −20 mV from a holding potential of −90 mV. The current–voltage relationships were determined by 50 ms step depolarizations between −90 and +65 mV using 5 or 10 mV increments. All electrophysiological data were analyzed following the procedures described by Peigneur et al., 2012 [20].
All values were expressed as means ± SEM. Differences in ionic currents between the control and toxin conditions were compared by a one-way ANOVA, followed by Dunnett’s multiple comparisons test. Differences were considered statistically significant when […].

mNav1.6 = test: TEVC, Nav1.6 in Xenopus oocytes; format: cell-based, mouse
Text: as §1, §2, §3
as §4, with “Current traces of hEAG1 were elicited by a 2 s depolarization to 0 mV from a holding potential of −90 mV. Sodium current traces were evoked by a 100 ms depolarization to 0 mV. For Cav channels, current traces were elicited by 700 ms depolarizations to −20 mV from a holding potential of −90 mV.” left out
(§5) All values were expressed as means ± SEM. […]

rNav1.4 = test: TEVC, Nav1.4 in Xenopus oocytes; format: cell-based, rat
Text: as §1, §2, §3
as §4, with “Current traces of hEAG1 were elicited by a 2 s depolarization to 0 mV from a holding potential of −90 mV. Sodium current traces were evoked by a 100 ms depolarization to 0 mV. For Cav channels, current traces were elicited by 700 ms depolarizations to −20 mV from a holding potential of −90 mV.” left out
as §5

hKv7.4 = test: TEVC, Kv7.4 in Xenopus oocytes; format: cell-based, human
Text: as §1, §2, §3
Whole-cell currents of oocytes were recorded 1 to 3 days after RNA injection. The current and voltage electrodes were filled with 3 M KCl, and their resistance was adjusted from 1.0 to 2.5 MΩ. […] The current–voltage relationships were determined by 50 ms step depolarizations between −90 and +65 mV using 5 or 10 mV increments. All electrophysiological data were analyzed following the procedures described by Peigneur et al., 2012 [20].
as §5

[1] = system: T-type voltage-gated calcium channels; test: TEVC panel of three T-type Cav channels, voltage dependence; format: cell-based; conditions: 1 µM vs control
Text: as §1, with “P186/2019. […]” for “P186/2019.”
Whole-cell currents of oocytes were recorded 1 to 3 days after RNA injection. […] The current–voltage relationships were determined by 50 ms step depolarizations between −90 and +65 mV using 5 or 10 mV increments. All electrophysiological data were analyzed following the procedures described by Peigneur et al., 2012 [20].
as §5

[2] = 1 µM, 100 ms depolarization to 0 mV, mean ± SEM, n ≥ 3

For “GTPCKCHGYIGVYWFMLAGCPNGYGYNLSCPYFLGICCVKK (disulfide 4-37, 6-30, 20-38 (inferred)) [Hcr 1b-2]”, the “effect on activation or inactivation, Nav1.7” value (hNav1.7; 1 µM) was “no significant effect”, the “Shift in Vhalf activation, Nav1.7” value (hNav1.7; 1 µM vs control (ND96)) was −2.8 mV and the “Shift in Vhalf inactivation, Nav1.7” value (hNav1.7; 1 µM vs control (ND96)) was −0.5 mV. The “reduction of peak amplitude (INa) / inhibition, Nav1.7” value (hNav1.7; [2]) was 38.7 ± 1.8%, the “Vhalf activation, Nav1.7” value (hNav1.7; 1 µM, control (ND96) −26.9 ± 0.1, mean ± SEM, n ≥ 3) was −29.7 ± 0.1 mV and the “Vhalf inactivation, Nav1.7” value (hNav1.7; 1 µM, control (ND96) −38.1 ± 0.3, mean ± SEM, n ≥ 3) was −38.6 ± 0.4 mV. The “Shift in Vhalf activation, Nav1.6” value (mNav1.6; 1 µM vs control (ND96)) was 3.5 mV, the “Shift in Vhalf inactivation, Nav1.6” value (mNav1.6; 1 µM vs control (ND96)) was −7.6 mV and the “reduction of peak amplitude (INa), Nav1.6” value (mNav1.6; [2]) was 41.8 ± 7.1%. The “Vhalf activation, Nav1.6” value (mNav1.6; 1 µM, control (ND96) −23.5 ± 0.1, mean ± SEM, n ≥ 3) was −20.0 ± 0.1 mV, the “Vhalf inactivation, Nav1.6” value (mNav1.6; 1 µM, control (ND96) −49.1 ± 0.3, mean ± SEM, n ≥ 3) was −56.7 ± 0.4 mV and the “Shift in Vhalf activation, Nav1.4” value (rNav1.4; 1 µM vs control (ND96)) was 5.5 mV. The “Shift in Vhalf inactivation, Nav1.4” value (rNav1.4; 1 µM vs control (ND96)) was −1.7 mV, the “reduction of peak amplitude (INa), Nav1.4” value (rNav1.4; [2]) was 29.1 ± 3.0% and the “Vhalf activation, Nav1.4” value (rNav1.4; 1 µM, control (ND96) −24.4 ± 0.1, mean ± SEM, n ≥ 3) was −18.9 ± 0.1 mV. For the same sequence, the “Vhalf inactivation, Nav1.4” value (rNav1.4; 1 µM, control (ND96) −48.5 ± 0.3, mean ± SEM, n ≥ 3) was −50.2 ± 0.2 mV, the “gating-modifier effect (voltage-current relationship), Kv7.4” value (hKv7.4; 1 µM) was “stronger shift” and the “Shift in Vhalf activation, Kv7.4” value (hKv7.4; 1 µM vs control (ND96)) was 7.1 mV. The “effect on potassium current, Kv7.4” value (hKv7.4; 1 µM, TEVC, ND96 pH 7.4, 18–22 °C, n ≥ 3) was “inhibition; also recorded: inhibits”, the “Vhalf activation, Kv7.4” value (hKv7.4; 1 µM, control (ND96) 3.8 ± 0.3, mean ± SEM) was 10.9 ± 0.3 mV and the “changes in voltage–current relationship, Cav3.1–3.3 activation and inactivation” value [1] was “insignificant changes”.
